These results are taken from PubChem BioAssay (NCI).

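In this assay, cells in 96-well plates receive the compound at five concentrations for 48 hours. Endpoints are linearly interpolated between the surrounding concentrations. GI50 is the concentration that inhibits growth by half. The concentration for full growth arrest is given as TGI.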 Bounds are passed on as bounds.

Test systems include SR leukemia; SK-MEL-2 melanoma; SNB-75 CNS; IGROV1 ovarian; LOX IMVI melanoma; HOP-62 NSCLC; SNB-19 CNS; NCI-H522 lung; MDA-MB-435; MDA-MB-231 breast.
Assay in all cases: growth of human tumour cells (NCI), 48 h

For `FC(F)(F)c1nc(Br)[nH]c1C(F)(F)F`, the TGI in the experiment with SR leukemia is above 100 µM; with SK-MEL-2 melanoma, above 100 µM; in the experiment with SNB-75 CNS it was above 100 µM; with IGROV1 ovarian, above 100 µM; with LOX IMVI melanoma, above 100 µM; with HOP-62 NSCLC it was 91.9 µM. This molecule also showed a TGI in the experiment on SNB-19 CNS above 100 µM.

For `N/C(=N/S(=O)(=O)c1cc(C(=O)Nc2ccc(F)cc2)c(Cl)cc1SCc1ccccc1)Nc1ccccc1O`, the GI50 with SK-MEL-2 melanoma was 2.13 µM; with SNB-75 CNS, 1.96 µM; in the experiment with NCI-H522 lung, 3.88 µM; with IGROV1 ovarian, 1.88 µM; in the experiment on LOX IMVI melanoma, 1.76 µM; in the experiment on HOP-62 NSCLC, 2.04 µM. Further, the GI50 in the experiment with MDA-MB-435 is 1.76 µM; in the experiment on SNB-19 CNS, 4.29 µM; with MDA-MB-231 breast, 1.54 µM. For the same molecule, the TGI with SK-MEL-2 melanoma stood at 4.02 µM; in the experiment with SNB-75 CNS it was 3.84 µM; in the experiment with NCI-H522 lung, 12.5 µM; with IGROV1 ovarian, 3.57 µM; with LOX IMVI melanoma it was 3.41 µM; in the experiment on HOP-62 NSCLC, 4.52 µM. In addition, the figures for the TGI in the experiment with MDA-MB-435, in the experiment with SNB-19 CNS and in the experiment with MDA-MB-231 breast were 3.19 µM, above 100 µM and 3.1 µM, respectively.

For `O=C(NCc1ccccc1)C1C(=O)C(=O)N(Cc2ccccc2)C1=O` (stereo not given), the TGI with SR leukemia, in the experiment with SK-MEL-2 melanoma, in the experiment on SNB-75 CNS, with NCI-H522 lung, in the experiment on IGROV1 ovarian and in the experiment on LOX IMVI melanoma was above 100 µM each time. Further, the TGI with HOP-62 NSCLC and in the experiment on SNB-19 CNS was above 100 µM each time.

Turning to `Cc1ccc(NC(=O)CCC(=O)C2Cc3ccccc3C2=O)cc1C` (stereo not given), the TGI with SR leukemia, in the experiment on SK-MEL-2 melanoma, in the experiment with SNB-75 CNS, in the experiment on NCI-H522 lung, in the experiment on IGROV1 ovarian and in the experiment with LOX IMVI melanoma was above 100 µM throughout. Moreover, the TGI in the experiment with HOP-62 NSCLC and in the experiment with SNB-19 CNS was above 100 µM throughout.

As for `C=C1C(O)C2CC(C)(C)C(=O)C2=C(CC(C)C)C12CC2` (stereo not given), the GI50 in the experiment with SR leukemia is 62.4 µM; in the experiment on SK-MEL-2 melanoma it was above 100 µM; in the experiment with NCI-H522 lung, 85 µM; in the experiment with IGROV1 ovarian, 55.6 µM; in the experiment with LOX IMVI melanoma, above 100 µM; in the experiment with HOP-62 NSCLC, above 100 µM. Also, the GI50 in the experiment with MDA-MB-435, with SNB-19 CNS and with MDA-MB-231 breast was above 100 µM in each case. The TGI in the experiment on SR leukemia, in the experiment with SK-MEL-2 melanoma, in the experiment on NCI-H522 lung, in the experiment on IGROV1 ovarian, in the experiment with LOX IMVI melanoma and in the experiment with HOP-62 NSCLC was above 100 µM each time. For the same molecule, the TGI in the experiment with MDA-MB-435, in the experiment on SNB-19 CNS and with MDA-MB-231 breast was above 100 µM each time.

For the molecule `O=C(O)CCSC(=O)Nc1ccccc1`, the TGI with SR leukemia, in the experiment with SK-MEL-2 melanoma, in the experiment on IGROV1 ovarian, in the experiment with LOX IMVI melanoma, with HOP-62 NSCLC and in the experiment with SNB-19 CNS was above 100 µM throughout.

Regarding `CCOC(=O)CCn1cnc(N)n1`, the TGI with SR leukemia, in the experiment on SK-MEL-2 melanoma, in the experiment with SNB-75 CNS, in the experiment with NCI-H522 lung, with IGROV1 ovarian and with LOX IMVI melanoma was above 100 µM in each case. For the same molecule, the TGI in the experiment with HOP-62 NSCLC and in the experiment with SNB-19 CNS was above 100 µM in each case.

For the molecule `C=C1C(C(=O)O)C1C(=O)O` (stereo not given), the TGI in the experiment on SR leukemia, with SK-MEL-2 melanoma, in the experiment with SNB-75 CNS, in the experiment on NCI-H522 lung, in the experiment with IGROV1 ovarian and with LOX IMVI melanoma was above 100 µM in each case. Besides, the TGI with HOP-62 NSCLC and with SNB-19 CNS was above 100 µM each time.

As for `CCc1cccc(NC(=O)c2cc(/C=C/c3ccccc3)[nH]c(=S)n2)c1`, the TGI in the experiment on SR leukemia, in the experiment on SK-MEL-2 melanoma, in the experiment on SNB-75 CNS, in the experiment with NCI-H522 lung, with IGROV1 ovarian and with HOP-62 NSCLC was above 100 µM each time. In addition, the TGI with SNB-19 CNS was above 100 µM.

As for `CC(=O)[CH-]C(=O)c1ccccc1.CC(=O)[CH-]C(=O)c1ccccc1.CC(=O)[CH-]C(=O)c1ccccc1.[Br-].[Zr+4]`, the GI50 is 38.5 µM with SK-MEL-2 melanoma; 34 µM in the experiment on SNB-75 CNS; 93.2 µM in the experiment with NCI-H522 lung; above 100 µM in the experiment on IGROV1 ovarian; 89.7 µM in the experiment with LOX IMVI melanoma; 64 µM in the experiment on HOP-62 NSCLC. Also, the TGI with SK-MEL-2 melanoma, in the experiment on SNB-75 CNS, with NCI-H522 lung, in the experiment with IGROV1 ovarian, in the experiment on LOX IMVI melanoma and with HOP-62 NSCLC was above 100 µM throughout.

Take `N#CC(C#N)=C1CCC2C(=C(C#N)C#N)CCC12` (stereo not given): the TGI with SR leukemia, in the experiment with SNB-75 CNS, with NCI-H522 lung, in the experiment with IGROV1 ovarian, in the experiment on LOX IMVI melanoma and in the experiment on HOP-62 NSCLC was above 100 µM throughout. In the experiment with SNB-19 CNS, this molecule came in with a TGI above 100 µM.

As to `CCc1ccccc1NC(=O)C(=O)C(C#N)c1c(Cl)cccc1Cl` (stereo not given), the TGI with SR leukemia, in the experiment with SK-MEL-2 melanoma, with SNB-75 CNS, with NCI-H522 lung, with IGROV1 ovarian and with LOX IMVI melanoma was above 100 µM throughout. Also, the TGI in the experiment on SNB-19 CNS is above 100 µM.

Regarding `Nc1cc(N)c2nc(-c3ccccc3)c(NCc3ccc(Cl)c(Cl)c3)nc2c1`, the GI50 was 1.63 µM in the experiment with SR leukemia; 1.91 µM in the experiment on SK-MEL-2 melanoma; 2.05 µM with NCI-H522 lung; 1.97 µM in the experiment on IGROV1 ovarian; 15.7 µM with HOP-62 NSCLC; 2.74 µM with MDA-MB-435. The GI50 was 22.5 µM with SNB-19 CNS and 1.58 µM with MDA-MB-231 breast. The TGI came out at 5.97 µM in the experiment on SR leukemia; 4.26 µM in the experiment on SK-MEL-2 melanoma; 4.91 µM in the experiment on NCI-H522 lung; 5.95 µM in the experiment with IGROV1 ovarian; 31.9 µM in the experiment on HOP-62 NSCLC; 7.56 µM in the experiment on MDA-MB-435. The TGI is 50.8 µM with SNB-19 CNS and 4.45 µM in the experiment with MDA-MB-231 breast.
